One substance from patent US6417176B2, “Arylsulfonanilide phosphates” (Tularik, Inc., priority 1998, dated 2002) can be followed below.

For this assay, the system named is HeLa cells. The following applies: 72 hours of treatment, 50% growth inhibition.

As a reminder, the GI50 is the concentration at which growth is held to half of that of the control. A low value points to more potent growth inhibition.

The substance “5-(Pentafluorophenylsulfonamido)-2-methoxyphenyl phosphate [Example 1]” showed a concentration for 50% growth inhibition (GI50) of 15 nM.
